The values that follow come from article PMC5603227 (ChemMedChem, 2017).

Common to all, as to type: cell-based, Mycobacterium tuberculosis
Test [1] concerns Fluoroquinolone resistant strain derived from H37Rv Mtb, gyrA mutant (D94N).
Test [2] has as its system Rifampicin resistant strain derived from H37Rv Mtb, ropB mutant (S522L).
Test [3] deals with Rifampicin resistant strain ACTCC35838. In words: microbe, parasite or virus in culture. As to conditions: for MIC: Mycobacterium tuberculosis, ACTCC35838, read-out: MIC RIF res2.
The subject of test [4] is Isoniazid resistant strain derived from H37Rv Mtb, katG mutant (Y155*).
The test system of test [5] is Isoniazid resistant strain ACTCC35822. In words: microbe, parasite or virus in culture. As to conditions: for MIC: Mycobacterium tuberculosis, ACTCC35822, read-out: MIC INH res2.

Converted amounts (≈) assume the structure as drawn.

In the case of `Cc1ccn2c(C(=O)NCc3ccc(S(F)(F)(F)(F)F)cc3)c(C)nc2c1` [Compound 13, 2,7-Dimethyl-N-(4-(pentafluoro-λ^6-sulfanyl)benzyl)imidazo[1,2-a]pyridine-3-carboxamide], the “MIC FQ res” value in test [1] was determined as 0.36 µM (≈ 0.146 µg/mL). Besides, the “MIC RIF res1” value in test [2] came to 0.079 µM (≈ 0.032 µg/mL). Moreover, the MIC in test [3] is 0.52 µM (≈ 0.211 µg/mL); in test [5] it was 0.24 µM (≈ 0.0973 µg/mL). The “MIC INH res1” value in test [4] is 0.070 µM (≈ 0.0284 µg/mL).

`CO[C@H]1/C=C/O[C@@]2(C)Oc3c(C)c(O)c4c(O)c(c(/C=N/N5CCN(C)CC5)c(O)c4c3C2=O)NC(=O)/C(C)=C\C=C\[C@H](C)[C@H](O)[C@@H](C)[C@@H](O)[C@@H](C)[C@H](OC(C)=O)[C@@H]1C` [RIF, Rifampicin, reference compound]: the “MIC FQ res” value in test [1] is 0.043 µM (≈ 0.0354 µg/mL). The “MIC RIF res1” value in test [2] was determined as 3.2 µM (≈ 2.63 µg/mL). For the same compound, the MIC in test [3] is greater than 50 µM; in test [5], 0.013 µM (≈ 0.0107 µg/mL). Moreover, the “MIC INH res1” value in test [4] was 0.027 µM (≈ 0.0222 µg/mL).

Regarding `CCc1nc2ccc(Cl)cn2c1C(=O)NCc1cccc(S(F)(F)(F)(F)F)c1` [Compound 18, 6-Chloro-2-ethyl-N-(3-(pentafluoro-λ^6-sulfanyl)benzyl)imidazo[1,2-a]pyridine-3-carboxamide], the “MIC FQ res” value in test [1] amounted to 2.9 µM (≈ 1.28 µg/mL). In test [2], the “MIC RIF res1” value came to 1.5 µM (≈ 0.66 µg/mL). Also, the MIC was determined as 0.5 µM (≈ 0.22 µg/mL) in test [3] and 2.7 µM (≈ 1.19 µg/mL) in test [5]. Also, in test [4], the “MIC INH res1” value worked out at 2.9 µM (≈ 1.28 µg/mL).

With `Cc1cn2c(C(=O)NCc3ccc(S(F)(F)(F)(F)F)cc3)c(C)nc2s1` [Compound 19, 2,6-Dimethyl-N-(4-(pentafluoro-λ^6-sulfanyl)benzyl)imidazo[2,1-b]thiazole-5-carboxamide], the “MIC FQ res” value in test [1] was 0.33 µM (≈ 0.136 µg/mL). In addition, in test [2], the “MIC RIF res1” value amounted to 0.26 µM (≈ 0.107 µg/mL). Also, the MIC in test [3] is 0.64 µM (≈ 0.263 µg/mL); in test [5], 0.39 µM (≈ 0.16 µg/mL). In addition, in test [4], the “MIC INH res1” value came out at 0.60 µM (≈ 0.247 µg/mL).

Consider `Cc1ccn2c(C(=O)NCc3cccc(S(F)(F)(F)(F)F)c3)c(C)nc2c1` [Compound 14, 2,7-Dimethyl-N-(3-(pentafluoro-λ^6-sulfanyl)benzyl)imidazo[1,2-a]pyridine-3-carboxamide], for which, in test [1], the “MIC FQ res” value came to 2.5 µM (≈ 1.01 µg/mL). In addition, the “MIC RIF res1” value in test [2] stood at 1.3 µM (≈ 0.527 µg/mL). The MIC in test [3] worked out at 0.13 µM (≈ 0.0527 µg/mL); in test [5], 4 µM (≈ 1.62 µg/mL). Further, in test [4], the “MIC INH res1” value turned out to be 3.4 µM (≈ 1.38 µg/mL).

Take `Cc1ccc2nc(C)c(C(=O)NCc3ccc(S(F)(F)(F)(F)F)cc3)n2c1` [Compound 15, 2,6-Dimethyl-N-(4-(pentafluoro-λ^6-sulfanyl)benzyl)imidazo[1,2-a]pyridine-3-carboxamide]: in test [1], the “MIC FQ res” value was 0.021 µM (≈ 0.00851 µg/mL). In test [2], the “MIC RIF res1” value worked out at 0.0060 µM (≈ 0.00243 µg/mL). For the same compound, the MIC came to 0.016 µM (≈ 0.00649 µg/mL) in test [3] and 0.011 µM (≈ 0.00446 µg/mL) in test [5]. Moreover, the “MIC INH res1” value in test [4] amounted to 0.044 µM (≈ 0.0178 µg/mL).

Consider `CCc1nc2ccc(Cl)cn2c1C(=O)NCc1ccc(S(F)(F)(F)(F)F)cc1` [Compound 17, 6-Chloro-2-ethyl-N-(4-(pentafluoro-λ^6-sulfanyl)benzyl)imidazo[1,2-a]pyridine-3-carboxamide], for which the “MIC FQ res” value in test [1] is 0.083 µM (≈ 0.0365 µg/mL). Besides, the “MIC RIF res1” value in test [2] is 0.0089 µM (≈ 0.00391 µg/mL). Moreover, the MIC worked out at 0.022 µM (≈ 0.00968 µg/mL) in test [3] and 0.021 µM (≈ 0.00924 µg/mL) in test [5]. Moreover, the “MIC INH res1” value in test [4] was 0.051 µM (≈ 0.0224 µg/mL).

Take `Cc1ccc2nc(C)c(C(=O)NCc3cccc(S(F)(F)(F)(F)F)c3)n2c1` [Compound 16, 2,6-Dimethyl-N-(3-(pentafluoro-λ^6-sulfanyl)benzyl)imidazo[1,2-a]pyridine-3-carboxamide]: the “MIC FQ res” value in test [1] was found to be 2.7 µM (≈ 1.09 µg/mL). Further, the “MIC RIF res1” value in test [2] worked out at 0.35 µM (≈ 0.142 µg/mL). Further, the MIC in test [3] was found to be 7.2 µM (≈ 2.92 µg/mL); in test [5], 2.4 µM (≈ 0.973 µg/mL). In addition, the “MIC INH res1” value in test [4] was 3.1 µM (≈ 1.26 µg/mL).

Consider Levoflaxacin [reference compound], for which the “MIC FQ res” value in test [1] worked out at 91 µM. The “MIC RIF res1” value in test [2] amounted to 3.43 µM. In addition, the “MIC RIF res2” value in test [3] (ACTCC35838) stood at 3.83 µM. Besides, the “MIC INH res1” value in test [4] was 3.97 µM. The “MIC INH res2” value in test [5] (ACTCC35822) is 5.83 µM.

Regarding `NNC(=O)c1ccncc1` [INH, Isoniazid, reference compound], in test [1], the “MIC FQ res” value came to 0.34 µM (≈ 0.0466 µg/mL). Moreover, the “MIC RIF res1” value in test [2] was determined as 0.160 µM (≈ 0.0219 µg/mL). For the same compound, the MIC in test [3] was 0.37 µM (≈ 0.0507 µg/mL); in test [5], greater than 200 µM. Moreover, the “MIC INH res1” value in test [4] is greater than 200 µM.
